Data: patent EP4620949A1, “ACKR3 MODULATORS FOR CARDIOVASCULAR OR ANTIPLATELET THERAPY” (Eberhard Karls Universität Tübingen (Medizinische Fakultät), priority 2024, dated 2025)
Where “and” joins values, the source holds several entries; their conditions need not be identical. Equal values may be shown once.

Columns and labels:
platelets = test: Flow cytometry assay of platelet degranulation (P-Selectin surface expression in PRP); format: cell-based, human; conditions: for P-Selectin expression reduction: PRP pre-incubated with compound (100 µM), then CRP-XL (1 µg/mL), % ±SEM normalized to CRP-XL-treated vehicle PRP
Description: Platelet Degranulation Studies of Derivatives. Concurrent with the β-Arrestin recruitment potency optimization, the compounds were also tested and developed according to their functional activity. To determine the ability of a compound to modulate platelets, P-Selectin surface expression was measured. P-Selectin is a surface protein involved in cell adhesion mechanisms and can be found on activated platelets. After induction of platelet aggregation in platelet-rich plasma (PRP), treatment with the respective compound should therefore lead to a significant reduction in P-Selectin expression. […]. […]. Similarly, platelet degranulation potency was highly sensitive toward "linker"-changes (Structure C, Table 1). A distinct trend could not be registered. […]. Flow Cytometry Assay. The inhibition of platelet degranulation was determined via flow cytometry experiments. Platelets were treated with collagen-related peptide (CRP-XL, CambCol Laboratories, Cambridge, UK) and the platelets' activation state was determined (Geue, S.; Aurbach, K.; Manke, M.-C.; Manukjan, G.; Münzer, P.; Stegner, D.; Brähler, C.; Walker-Allgaier, B.; Märklin, M.; Borst, C. E.; Quintanilla-Fend, L.; Rath, D.; Geisler, T.; Salih, H. R.; Seizer, P.; Lang, F.; Nieswandt, B.; Gawaz, M.; Schulze, H.; Pleines, I.; Borst, O. Pivotal role of pdk1 in megakaryocyte cytoskeletal dynamics and polarization during platelet biogenesis. Blood 2019, 134, 1847-1858; and Malehmir, M.; Pfister, D.; Gallage, S.; Szydlowska, M.; Inverso, D.; Kotsiliti, E.; Leone, V.; Peiseler, M.; Surewaard, B. G. J.; Rath, D.; Ali, A.; Wolf, M. J.; Drescher, H.; Healy, M. E.; Dauch, D.; Kroy, D.; Krenkel, O.; Kohlhepp, M.; Engleitner, T.; Olkus, A.; Sijmonsma, T.; Volz, J.; Deppermann, C.; Stegner, D.; Helbling, P.; Nombela-Arrieta, C.; Rafiei, A.; Hinterleitner, M.; Rail, M.; Baku, F.; Borst, O.; Wilson, C. L.; Leslie, J.; O'Connor, T.; Wes-ton, C. J.; Chauhan, A.; Adams, D. H.; Sheriff, L.; Teijeiro, A.; Prinz, M.; Bogeska, R.; An-stee, N.; Bongers, M. N.; Notohamiprodjo, M.; Geisler, T.; Withers, D. J.; Ware, J.; Mann, D. A.; Augustin, H. G.; Vegiopoulos, A.; Milsom, M. D.; Rose, A. J.; Lalor, P. F.; Llovet, J. M.; Pinyol, R.; Tacke, F.; Rad, R.; Matter, M.; Djouder, N.; Kubes, P.; Knolle, P. A.; Unger, K.; Zender, L.; Nieswandt, B.; Gawaz, M.; Weber, A.; Heikenwalder, M. Platelet gpibα is a mediator and potential interventional target for nash and subsequent liver cancer. Nat. Med. 2019, 25, 641-655). Briefly, PRP was isolated from peripheral human blood collected in citrate-phosphate-dextrose solution with adenine (CPDA) and diluted with phosphate-buffered saline (PBS) (Sigma Aldrich Co., Ltd., St. Luis, Missouri, USA) supplemented with CaCl2 and MgCl2. PRP (106 platelets /sample) was preincubated with the respective compound (100 µM) for 15 min. Samples were treated with 1 µg/ml CRP-XL (CambCol Laboratories, Cambridge, UK) for 30 min at room temperature in the presence of the respective fluorochrome-conjugated antibody against P-Selectin (CD62P-FITC; Beckman Coulter, Brea, CA, USA). Subsequently, samples were fixed in 0.5% paraformaldehyde and analyzed on a FACS-Calibur flow cytometer (FACS-Caliber flow cytometer, Becton-Dickinson, East Rutherford, NJ, USA). Mean fluorescence intensity (MFI) was used as a quantitative measurement of platelet surface expression.

human ACKR3 = target: T1, human ACKR3 (Homo sapiens, UniProt P25106); test: ACKR3 β-Arrestin recruitment assay (NanoLuc complementation, NanoBiT) in HEK293T cells; format: cell-based; conditions: for EC50: ACKR3, HEK293T cells, average value of three independent experiments; for Efficacy (Emax) vs CXCL12: efficacy of CXCL12 at 300 nM set as 100%, average of three independent experiments
T1 construct: expressed in transfected cells; host or cells: HEK293T
T1 sequence (P25106 whole entry): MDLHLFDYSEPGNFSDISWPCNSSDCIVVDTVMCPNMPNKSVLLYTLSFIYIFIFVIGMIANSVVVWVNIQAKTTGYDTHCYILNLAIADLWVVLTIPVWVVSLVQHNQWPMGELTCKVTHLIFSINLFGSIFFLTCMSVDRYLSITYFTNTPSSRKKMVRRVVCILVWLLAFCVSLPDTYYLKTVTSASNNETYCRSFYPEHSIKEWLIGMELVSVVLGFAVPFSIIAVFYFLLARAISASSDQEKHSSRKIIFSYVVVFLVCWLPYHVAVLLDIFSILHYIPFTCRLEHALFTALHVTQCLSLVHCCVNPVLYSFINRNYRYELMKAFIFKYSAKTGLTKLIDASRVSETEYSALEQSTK
T1 sequence (P49407 whole entry partner): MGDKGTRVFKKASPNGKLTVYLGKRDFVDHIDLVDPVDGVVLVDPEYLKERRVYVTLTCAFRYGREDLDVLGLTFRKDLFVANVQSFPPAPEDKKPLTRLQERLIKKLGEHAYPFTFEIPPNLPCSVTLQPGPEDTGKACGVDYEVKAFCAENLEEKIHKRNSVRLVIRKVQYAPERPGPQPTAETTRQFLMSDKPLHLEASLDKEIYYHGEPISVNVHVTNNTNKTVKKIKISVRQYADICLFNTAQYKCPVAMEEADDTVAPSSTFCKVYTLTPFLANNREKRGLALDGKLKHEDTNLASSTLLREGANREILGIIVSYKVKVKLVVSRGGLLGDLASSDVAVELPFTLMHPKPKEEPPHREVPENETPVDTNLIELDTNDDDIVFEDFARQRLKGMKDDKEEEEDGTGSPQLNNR
Description: ACKR3 β-Arrestin Recruitment Assay. […] T.; Encell, L. P.; Wood, K. V. Nanoluc complementation reporter optimized for accurate measurement of protein interactions in cells. […] B.; Reynders, N.; Vanderplasschen, A.; Ollert, M.; Bouvier, M.; Szpakowska, M.; Chevigné, A. Proadrenomedullin n-terminal 20 peptides (pamps) are agonists of the chemokine scavenger receptor ACKR3/CXCR7. […] The prepared cells were then treated with compounds at concentrations ranging from 0.3 nM to 100 µM. Induction of β-Arrestin recruitment to receptors was evaluated by measuring bioluminescence with a Mithras LB940 luminometer (Berthold Technologies).
All curves were fitted to data points generated from the mean of at least three independent experiments. Results with values of p < 0.05 were considered statistically significant.

| SMILES | P-Selectin expression reduction (platelets) | EC50 (human ACKR3) | other results |
| --- | --- | --- | --- |
| CN(CCCNC(=O)c1cc2ccccc2o1)Cc1ccccc1 [Compound 5, N-(3-(benzyl(methyl)amino)propyl)benzofuran-2-carboxamide] | 35% |  | functional activity (in words) (platelets; P-Selectin flow cytometry, "head"-scaffold compounds): inactive |
| CN(CCCNC(=O)c1ccc(-c2ccccc2)s1)Cc1ccc(F)cc1 [Compound 20, N-(3-((4-fluorobenzyl)(methyl)amino)propyl)-5-phenylthiophene-2-carboxamide] |  | 0.37 µM |  |
| CN(CCCNC(=O)c1ccc(-c2ccncc2)s1)Cc1ccccc1 [Compound 13, N-(3-(benzyl(methyl)amino)propyl)-5-(pyridin-4-yl)thiophene-2-carboxamide] |  | 1.72 µM |  |
| O=C(NCc1ccccc1)C1CCN(Cc2csc(-c3ccccc3)n2)CC1 [Compound 48, N-benzyl-1-((2-phenylthiazol-4-yl)methyl)piperidine-4-carboxamide] |  | 1.5 µM and 1.1 µM | Efficacy (Emax) vs CXCL12 (human ACKR3): 110% |
| CN(CCCNC(=O)c1ccc(Br)s1)Cc1ccccc1 [Compound 2, N-(3-(benzyl(methyl)amino)propyl)-5-bromothiophene-2-carboxamide] |  | 1.62 µM |  |
| CC(C)(C)NC(=O)C1CCN(CCCNC(=O)c2ccc(-c3ccccc3)s2)CC1 [Compound 37, N-(tert-butyl)-1-(3-(5-phenylthiophene-2-carboxamido)propyl)piperidine-4-carboxamide] |  | 3.2 µM and 2.5 µM | Efficacy (Emax) vs CXCL12 (human ACKR3): 102% |
| O=C(NCCCN1CCc2ccccc2C1)c1ccc(-c2ccccc2)s1 [Compound 35, N-(3-(3,4-dihydroisoquinolin-2(1H)-yl)propyl)-5-phenylthiophene-2-carboxamide] | 27±9% |  |  |
| CN(CCCNC(=O)c1ccc(-c2ccccc2F)s1)Cc1ccccc1 [Compound 15, N-(3-(benzyl(methyl)amino)propyl)-5-(2-fluorophenyl)thiophene-2-carboxamide] | 71±11% |  |  |
| CN(CCCNC(=O)c1ccc(-c2ccc(C(C)(C)C)cc2)s1)Cc1ccccc1 [Compound 10, N-(3-(benzyl(methyl)amino)propyl)-5-(4-(tert-butyl)phenyl)thiophene-2-carboxamide] |  | 10.2 µM |  |
| CN(CCCNC(=O)CSc1ccccc1)Cc1ccccc1 [Compound 7, N-(3-(benzyl(methyl)amino)propyl)-2-(phenylthio)acetamide] |  | 809 µM | Efficacy (Emax) vs CXCL12 (human ACKR3): 99% |
| CN(CCCNC(=O)c1ccc(-c2cccc(F)c2)s1)Cc1ccccc1 [Compound 16, N-(3-(benzyl(methyl)amino)propyl)-5-(3-fluorophenyl)thiophene-2-carboxamide] |  | 0.267 µM | more potent than 1 (human ACKR3; β-Arrestin recruitment potency relative to compound 1): up to 1.5 fold |
| CN(CCCNC(=O)c1ccc(-c2ccccc2)s1)Cc1ccccc1 [Compound 1, N-(3-(benzyl(methyl)amino)propyl)-5-phenylthiophene-2-carboxamide] | 71% and 74±9% |  |  |
| CN(CCCNC(=O)c1ccc(-c2ccccc2)s1)Cc1cccc(NC(=O)c2ccc(F)cc2)c1 [Compound 36, N-(3-((3-(4-fluorobenzamido)benzyl)(methyl)amino)propyl)-5-phenylthiophene-2-carboxamide] |  | 2.1 µM and 1.1 µM | Efficacy (Emax) vs CXCL12 (human ACKR3): 86% |
| CC(C)(C)OC(=O)N1CCCC(CNC(=O)c2ccc(-c3ccccc3)s2)C1 (stereo not drawn) [Compound 38, tert-butyl 3-((5-phenylthiophene-2-carboxamido)methyl)piperidine-1-carboxylate] |  | 4.68 µM |  |
| CN(CCCNC(=O)c1ccc(-c2ccccc2)s1)Cc1cccc(F)c1 [Compound 22, N-(3-((3-fluorobenzyl)(methyl)amino)propyl)-5-phenylthiophene-2-carboxamide] | 66% and 66±14% |  |  |
| CN(CCCNC(=O)c1ccc(-c2ccccc2)s1)Cc1ccc(Br)cc1 [Compound 19, N-(3-((4-bromobenzyl)(methyl)amino)propyl)-5-phenylthiophene-2-carboxamide] | 89±3% |  |  |
| CN(CCCNC(=O)c1ccc(-c2ccccc2)s1)Cc1ccccc1F [Compound 21, N-(3-((2-fluorobenzyl)(methyl)amino)propyl)-5-phenylthiophene-2-carboxamide] | 40% and 40±10% |  |  |
| CN(CCCNC(=O)c1ccc(-c2cc(F)cc(F)c2)s1)Cc1ccccc1 [Compound 17, N-(3-(benzyl(methyl)amino)propyl)-5-(3,5-difluorophenyl)thiophene-2-carboxamide] | 81±9% |  |  |
| O=C(NCCCNCc1ccccc1)c1ccc(-c2ccccc2)s1 [Compound 34, N-(3-(benzylamino)propyl)-5-phenylthiophene-2-carboxamide] | 95±1% |  |  |
| CC(C)N(CCCNC(=O)c1ccc(-c2ccccc2)s1)Cc1ccccc1 [Compound 24, N-(3-(benzyl(isopropyl)amino)propyl)-5-phenylthiophene-2-carboxamide] |  | 0.709 µM |  |
| O=C(NCc1cccc([N+](=O)[O-])c1)c1ccc(-c2ccccc2)s1 [Compound 42, N-(3-nitrobenzyl)-5-phenylthiophene-2-carboxamide] | 17±3% |  |  |
| CN(CCCNC(=O)c1ccc(-c2ccc(F)cc2)s1)Cc1ccccc1 [Compound 14, N-(3-(benzyl(methyl)amino)propyl)-5-(4-fluorophenyl)thiophene-2-carboxamide] | 87±7% |  |  |
| CN(CCCNC(=O)c1cc2ccccc2[nH]1)Cc1ccccc1 [Compound 4, N-(3-(benzyl(methyl)amino)propyl)-1H-indole-2-carboxamide] |  | 2.67 µM |  |
| O=C(Nc1cccc(CN2CCCN(C(=O)c3ccc(-c4ccccc4)s3)CC2)c1)c1ccc(F)cc1 [Compound 41, 4-fluoro-N-(3-((4-(5-phenylthiophene-2-carbonyl)-1,4-diazepan-1-yl)methyl)phenyl)benzamide] |  | 76 µM and 89 µM | Efficacy (Emax) vs CXCL12 (human ACKR3): 50% |
| O=C(Nc1cccc(CNC(=O)c2ccc(-c3ccccc3)s2)c1)c1ccc(F)cc1 [Compound 43, N-(3-(4-fluorobenzamido)benzyl)-5-phenylthiophene-2-carboxamide] |  | 3.35 µM |  |
| CN(CCCNC(=O)c1cc2ccccc2s1)Cc1ccccc1 [Compound 3, N-(3-(benzyl(methyl)amino)propyl)benzo[b]thiophene-2-carboxamide] |  | 0.775 µM |  |
| COc1ccc(CN(C)CCCNC(=O)c2ccc(-c3ccccc3)s2)cc1 [Compound 18, N-(3-((4-methoxybenzyl)(methyl)amino)propyl)-5-phenylthiophene-2-carboxamide] |  | 0.93 µM |  |
| CN1CCCC1CCNC(=O)c1csc(-c2ccccc2)n1 (stereo not drawn) [Compound 44, N-(2-(1-methylpyrrolidin-2-yl)ethyl)-2-phenylthiazole-4-carboxamide] |  | 3 µM |  |
| Cc1ccc(-c2ccc(C(=O)NCCCN(C)Cc3ccccc3)s2)cc1 [Compound 9, N-(3-(benzyl(methyl)amino)propyl)-5-(p-tolyl)thiophene-2-carboxamide] |  | 0.576 µM |  |
